The record followed here is article PMC11091888, “Evaluation of Fusobacterium nucleatum Enoyl-ACP Reductase (FabK) as a Narrow-Spectrum Drug Target” (ACS Infectious Diseases, 2024).

One data set deals with FnFabK (Fusobacterium nucleatum subsp. nucleatum, UniProt Q8RGV3). Put plainly: biochemical. How it is done: Incubation lasted for a total of 10 min before the addition of crotonyl-CoA substrate, and the reaction was initiated by the addition of NADH for a final assay volume of 100 μL. The oxidation of NADH to NAD+ was measured by tracking fluorescence (340 nm/460 nm) with a Biotek Synergy H1 microplate reader in 15 s intervals for a total of 10 min to monitor the rate of reaction. The reaction was conducted in Greiner Bio-One 384-well μClear Bottom Polystyrene Microplates. […] Measurements were conducted in triplicate, and IC50’s were calculated via GraphPad Prism 9.1.2 using four-parameter logistic (Hill) curve analysis using equation Y = bottom + (top – bottom)/[1 + 10 (Log IC50 – X) × Hill Slope], where X is the logarithm of the dose and Y is the response. The assay concentrations of the cofactor, NADH, and substrate, crotonyl-CoA, were also determined via GraphPad Prism 9.1.2 using the substrate inhibition model to determine Km(app).
Sequence of FnFabK (Q8RGV3 entry or part of it): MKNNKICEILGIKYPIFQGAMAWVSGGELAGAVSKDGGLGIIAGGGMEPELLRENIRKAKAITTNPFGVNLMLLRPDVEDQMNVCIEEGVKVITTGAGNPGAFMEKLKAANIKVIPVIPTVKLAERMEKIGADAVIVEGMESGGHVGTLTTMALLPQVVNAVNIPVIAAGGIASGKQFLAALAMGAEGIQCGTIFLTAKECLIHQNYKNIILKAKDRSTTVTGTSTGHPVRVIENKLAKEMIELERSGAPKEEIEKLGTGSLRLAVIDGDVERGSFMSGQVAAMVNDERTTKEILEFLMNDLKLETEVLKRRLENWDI

Data set [1] in a line: Cytotoxicity against Vero cells (resazurin viability). The following applies: monkey, Vero epithelial cells, maximum tested concentration 100 μg/mL. The data set is classed as cell-based. As to the method:
This was done as described[36] using colorectal carcinoma HCT116 and Vero epithelial cells cultured at 37 °C in 5% CO2 in Dulbecco’s modified Eagle’s medium (DMEM) with 4.5 g/L glucose and L-glutamine. The medium was supplemented with 10% v/v FetalGro (Rocky Mountain Biologicals). Approximately 25,000/well were aliquoted into black 96-well plates (Greiner Bio-One) and incubated overnight, before being resuspended in DMEM supplemented with 20% Gibco KnockOut Serum Replacement (Thermo Fisher Scientific). Compounds (100–1.6 μg/mL) were then added to the cells and incubated for 24 h at 37 °C and 5% CO2. Cell viability was analyzed using resazurin as described.[36]
A general note: The colour change of resazurin is a common sign of viable cells or microbes.

A further data set relates to E. faecalis FA2–2. Briefly: MIC against wild-type E. faecalis FA2-2 (FabI and FabK). The note with it: E. faecalis FA2-2, possesses both FabI and FabK. The class given is cell-based, Enterococcus faecalis. As to the method:
(§1) Compounds were twofold serially diluted (100–0.2 μg/mL) across a 96-well plate in 100 μL of media used for the specific organism (Table S4). For anaerobes, plates were incubated anaerobically at 37 °C for 1 h and then inoculated with approximately 10^5 to 10^6 CFU/well. Plates were incubated at 37 °C for up to 48 h, and MICs were read by visual inspection.

Data set [2] concerns F. nucleatum 23726 overexpression strains. Briefly: MIC against F. nucleatum 23726 transformed with empty vector, fabK or fabX under ATc-inducible promoter. The class given is cell-based, Fusobacterium nucleatum. The following applies: for MIC: Fusobacterium nucleatum. How it is done:
(§2) The transformation of F. nucleatum 23726 was performed via electroporation as previously described,[41] except that Columbia broth was used. (i) Antisense vector: F. nucleatum gene silencing vector, pHFK2, was developed by inserting the ATc inducible paired-termini antisense sequences from the clostridial vector pMSPT into pCWU6, a F. nucleatum vector.[56] pCWU6 was amplified by PCR (CloneAmp polymerase) and recombined with the BamHI and KpnI fragments of pMSPT containing the Tet promoter and paired-termini sequences.[26] Antisense nucleotides targeting either 50 bp upstream and downstream of the fabK start codon (FabKAS1) or 25 bp upstream and 75 bp downstream (FabKAS2) were cloned into SphI and XhoI restriction sites of pHFK2. (ii) Complementation vectors: these were generated by PCR amplifying the fabK promoter and gene and introducing KpnI and HindIII restriction sites at 5′ and 3′ ends, respectively. Purified PCR amplicons were inserted into the KpnI and HindIII sites of pCWU6. (iii) Overexpression vectors: the corresponding gene, fabK or fabX, was amplified via PCR, introducing HindIII or SacI restriction sites to the 5′ end, respectively. BamHI restriction sites were introduced to the 3′ end of both. Purified PCR amplicons were inserted into the respective restriction sites of pHFK2. (iv) Allelic exchange vector: vector, pCWU8-FabK, was generated using a previously described protocol,[41],[56] whereby 1-kb regions upstream and downstream of fabK were cloned into the suicide vector pCWU8 using a Gibson Assembly Cloning Kit (New England Biolabs). The recombinant vector was transformed into strain F. nucleatum 23726ΔgalK, and successful integrants were collected that were resistant to thiamphenicol (5 μg/mL). Since the suicide vector expresses GalK, which is toxic in the presence of 2-deoxy-D-galactose (2-DG), the compound 2-DG (0.25% w/v) was added to counter-select for mutants that underwent a second homologous recombination. Ten resulting colonies were then tested for deletion of fabK via PCR, using primers in Table S7. The experiment was independently performed twice for a total of 20 colonies screened for fabK deletion. All experiments were done anaerobically at 37 °C in tryptic soy broth supplemented with 1% w/v peptone and 0.25% w/v autoclaved L-cysteine hydrochloride (TSPC) or TSPC agar with thiamphenicol or 2-DG.
as §1

The subject of another data set is F. nucleatum 23726. Put plainly: MIC against F. nucleatum 23726. The data set is classed as cell-based, Fusobacterium nucleatum. The note with it: Fusobacterium nucleatum, 23726, F. nucleatum 23726 wild-type; three biological replicates; read-out: MIC Fn 23726. How it is done: as §1
Data set [3] has as its system F. nucleatum 23726 mutants JR1-JR4. Put plainly: MIC against 681-resistant mutants of F. nucleatum 23726. The class given is cell-based, Fusobacterium nucleatum. The note with it: for MIC: Fusobacterium nucleatum. How it is done:
as §1
Overnight cultures of F. nucleatum 23726 were diluted 1:50 in fresh Columbia broth, which was used to inoculate 96-well plates containing twofold serial dilutions of compound 681. After 48 h of incubation, cultures were recovered from wells one dilution below the MIC, and this was used to establish the inocula for the subsequent passage into 96-well plates containing 681. This process was repeated until cultures grew at 8× the original MIC for two consecutive passages. Cultures were then plated onto Columbia blood agar plates and incubated for 72 h at 37 °C. Single colonies were collected into Columbia broth with 0.39 μg/mL of 681 and cultured for up to 48 h and then plated onto selective Columbia blood agar plates to further purify putative 681-resistant colonies.

The next data set relates to S. salivarius HM-121. Briefly: Growth in FAS-II inhibitor with or without exogenous fatty acids. The class given is cell-based, Streptococcus salivarius. The note with it: fatty acid mixture of Table S2. As to the method: To plates containing twofold serial dilutions of compounds, exponential phase cultures were added to a final OD600nm of 0.1. Plates containing F. nucleatum in Columbia broth were incubated at 37 °C inside of a Tecan Infinite 200 Pro, which was inside an anaerobic chamber; growth kinetics for Streptococcus spp. in brain heart infusion broth were done aerobically in the same Tecan instrument.

For data set [4], the system named is F. nucleatum 23726 complementation strains. Briefly: MIC against F. nucleatum 23726 carrying FabK alanine-132 or threonine-132 under the wild-type fabK promoter. The note with it: Fusobacterium nucleatum. The data set is classed as cell-based. As to the method:
as §2, with “Since the suicide vector expresses GalK, which is toxic in the presence of 2-deoxy-D-galactose (2-DG), the compound 2-DG (0.25% w/v) was added to counter-select for mutants that underwent a second homologous recombination. Ten resulting colonies were then tested for deletion of fabK via PCR, using primers in Table S7. The experiment was independently performed twice for a total of 20 colonies screened for fabK deletion. All experiments were done anaerobically at 37 °C in tryptic soy broth supplemented with 1% w/v peptone and 0.25% w/v autoclaved L-cysteine hydrochloride (TSPC) or TSPC agar with thiamphenicol or 2-DG.” left out
Compounds were twofold serially diluted (100–0.2 μg/mL) across a 96-well plate in 100 μL of media used for the specific organism (Table S4). […] Plates were incubated at 37 °C for up to 48 h, and MICs were read by visual inspection.

Values after ≈ are worked out from the molar mass of the structure shown. Values joined by “and” are separate entries in the source; they are usually repeats but may differ in a detail not shown here. Identical values can stand only once. Like-named read-outs stand apart in the source and are kept apart here. Some results are limits rather than exact numbers.

The term IC50 denotes the concentration that gives 50% inhibition.

Consider `CS(=O)(=O)c1ccc2nc(NC(=O)NCc3nc(-c4ccc(Br)cc4)c[nH]3)sc2c1` [Compound 681, 1-((4-(4-bromophenyl)-1H-imidazole-2-yl)methyl)-3-(6-(methylsulfonyl)benzo[d]thiazol-2-yl)urea], for which the IC50 on FnFabK (IC50 against FnFabK, equivalent concentration, conversion of the μM value) was 1.97 µM. Further, the “Hill coefficient (FnFabK inhibition)” value on FnFabK (four-parameter logistic fit) is 1.01. In data set [1], this compound had an IC50 at 24 h of more than 100 µg/mL. For the same compound, in the data set with E. faecalis FA2–2, the “MIC Ef wild-type” value is 100 µg/mL and >100 µg/mL. For the same compound, the MIC in the data set on E. faecalis FA2–2 (Enterococcus faecalis, read-out: MIC Ef wild-type) was more than 100 µg/mL; in data set [2] (read-out: MIC, FabK overexpression, induced) it was more than 100 µg/mL; in data set [2] (read-out: MIC, FabK overexpression, uninduced), 0.8 µg/mL; in data set [2] (read-out: MIC, FabX overexpression, induced), 3.1 µg/mL; in data set [2] (read-out: MIC, FabX overexpression, uninduced), 0.8 µg/mL; in data set [2] (read-out: MIC, empty vector, induced) it was 0.4 µg/mL. Besides, the MIC in data set [2] (read-out: MIC, empty vector, uninduced) is 0.8 µg/mL; with F. nucleatum 23726 it was 0.4 µg/mL (≈ 0.79 µM); in data set [3] (read-out: MIC against mutant JR2), 6.3 µg/mL (≈ 12.4 µM); in data set [3] (read-out: MICs against mutants JR1-JR4) it was 3.1 to 12.5 µg/mL (≈ 6.12 to 24.7 µM); in data set [4] (read-out: MIC, empty vector control) it was 0.6 µg/mL; in data set [4] (read-out: MIC, threonine-132 FabK mutant), 2.5 to 5 µg/mL. Besides, the MIC in data set [4] (read-out: MIC, wild-type FabK (alanine-132)) is 1.3 µg/mL. For the same compound, the “MIC, FabK overexpression, induced” value in data set [2] (F. nucleatum 23726 pTET-fabK, 62.5 ng/mL ATc) was more than 100 µg/mL. Further, the “MIC against mutant JR2” value in data set [3] (12 bp deletion upstream of fabX) was determined as 3.1 µg/mL (≈ 6.12 µM). Also, in data set [3] (fabK TSS + 1: C > T), the “MIC against mutant JR3” value was determined as 3.1 µg/mL. Moreover, the “Increase in biomass (OD600nm) in the presence of inhibitor and exogenous fatty acids” value in the data set with S. salivarius HM-121 is on record as “twofold”.
